In patent US10526347B2, “3-(3H-imidazo[4,5-B]pyridin-2-yl)-1H-pyrazolo[3,4-B]pyridine and therapeutic uses thereof” (Samumed, LLC, priority 2014, dated 2020):
pEC50, pIC50: −log10 of the molar value.

Experiments:
[1] = test system: Wnt activity (SW480 colon carcinoma cells stably expressing the Sp5-Luc reporter gene); assay: Sp5-Luc reporter gene screening assay for Wnt activity; type: cell-based; settings: Homo sapiens
Text: The screening assay for Wnt activity is described as follows. Reporter cell lines can be generated by stably transducing cancer cell lines (e.g., colon cancer) or primary cells (e.g., IEC-6 intestinal cells) with a lentiviral construct that includes a Wnt-responsive promoter driving expression of the firefly luciferase gene.
SW480 colon carcinoma cells were transduced with a lentiviral vector expressing luciferase with a human Sp5 promoter consisting of a sequence of eight TCF/LEF binding sites. SW480 cells stably expressing the Sp5-Luc reporter gene and a hygromycin resistance gene were selected by treatment with 150 μg/ml of hygromycin for 7 days. These stably transduced SW480 cells were expanded in cell culture and used for all further screening activities. For Sp5-Luc reporter gene assays, the cells were plated at 10,000 cells/well in 96-well plates with growth medium containing 10% fetal calf serum and incubated overnight at 37° C. and 5% CO2. Each compound was dissolved in DMSO as a 10 mM stock in standard j-vials and used to prepare compound source plates in dose-response format with 3-fold serial dilutions and a 10 mM top concentration. Compound transfer from serially diluted source plates to assay plates containing the cells was accomplished using a pintool (Multimek 96, Beckman equipped with V&P Scientific FP1S50H pins) based liquid handling protocol. This protocol used a slotted pin to transfer 50 nl of compound from a source plate well to an assay plate well containing 50 μl of cells in growth medium. […] Control wells received 50 nl of DMSO treatment for normalization and calculating IC50 values. The treated cells were incubated at 37° C. and 5% CO2 for an additional forty-two hours. Following incubation, the growth medium was removed and 50 μl of BrightGlo luminescence reagent (Promega) was added to each well of the 96-well assay plates. The plates were placed on an orbital shaker for 5 min and then luminescence was quantified on the Victor3 (Perkin Elmer) plate reader. Readings were normalized to DMSO only treated cells, and normalized activities were utilized for IC50 calculations using the dose-response log (inhibitor) vs. response -variable slope (four parameters) nonlinear regression feature available in GraphPad Prism 5.0 or 6.0.

[2] = test system: primary human fibroblasts derived from IPF patients (LL29 cells); assay: Inhibition of the fibrotic process in TGF-β1 treated IPF patient fibroblasts (αSMA staining); type: cell-based; settings: Fibroblast, 96 h, LL29 cells treated with TGF-β1 (20 ng/mL), 4 days, read-out: Inhibition of fibrosis EC50
Text: The above synthesized compounds were screened using primary human fibroblasts (derived from IPF patients) treated with TGF-β1 to determine their ability to inhibit the fibrotic process.
Primary human fibroblasts derived from IPF patients (LL29 cells) [^1Xiaoqiu Liu, et. al., “Fibrotic Lung Fibroblasts Show Blunted Inhibition by cAMP Due to Deficient cAMP Response Element-Binding Protein Phosphorylation”, Journal of Pharmacology and Experimental Therapeutics (2005), 315(2), 678-687; ^2Watts, K. L., et. al., “RhoA signaling modulates cyclin D1 expression in human lung fibroblasts; implications for idiopathic pulmonary fibrosis”, Respiratory Research (2006), 7(1), 88] were obtained from American Type Culture Collection (ATCC) and expanded in F12 medium supplemented with 15% Fetal Bovine Serum and Penicillin/Streptomycin.
Each compound was dissolved in DMSO as a 10 mM stock and used to prepare compound source plates. Serial dilution (1:2, 11-point dose-response curves from 10 μM to 1.87 nM) and compound transfer was performed using the ECHO 550 (Labcyte, Sunnyvale, Calif.) into 384-well clear bottom assay plates (Greiner Bio-One) with appropriate DMSO backfill for a final DMSO concentration of 0.1%. LL29 cells were plated at 1,500 cells/well in 80 μl/well F12 medium supplemented with 1% Fetal Bovine Serum. One hour after addition of the cells, TGF-β1 (Peprotech; 20 ng/mL) was added to the plates to induce fibrosis (ref. 1 and 2 above). Wells treated with TGF-β1 and containing DMSO were used as controls. Cells were incubated at 37° C. and 5% CO2 for 4 days. Following incubation for 4 days, SYTOX green nucleic acid stain (Life Technologies [Thermo Fisher Scientific]) was added to the wells at a final concentration of 1 uM and incubated at room temperature for 30 min. Cells were then fixed using 4% formaldehyde (Electron Microscopy Sciences), washed 3 times with PBS followed by blocking and permeabilization using 3% Bovine Serum Albumin (BSA; Sigma) and 0.3% Triton X-100 (Sigma) in PBS. Cells were then stained with antibody specific to α-smooth muscle actin (αSMA; Abcam) (ref. 1 and 2 above) in 3% Bovine Serum Albumin (BSA; Sigma) and 0.3% Triton X-100 (Sigma) in PBS, and incubated overnight at 4° C. Cells were then washed 3 times with PBS, followed by incubation with Alexa Flor-647 conjugated secondary antibody (Life Technologies [Thermo Fisher Scientific]) and DAPI at room temperature for 1 hour. Cells were then washed 3 times with PBS and plates were sealed for imaging. αSMA staining was imaged by excitation at 630 nm and emission at 665 nm and quantified using the Compartmental Analysis program on the CellInsight CX5 (Thermo Scientific). Dead or apoptotic cells were excluded from analysis based on positive SYTOX green staining. % of total cells positive for αSMA were counted in each well and normalized to the average of 11 wells treated with TGF-β1 on the same plate using Dotmatics' Studies Software. The normalized averages (fold change over untreated) of 3 replicate wells for each compound concentration were used to create dose-responses curves and EC50 values were calculated using non-linear regression curve fit in the Dotmatics' Studies Software. The EC50 values are reported.

SMILES: CN(C)CC(=O)Nc1cncc(-c2cnc3[nH]nc(-c4nc5c(-c6cccc(F)c6)ccnc5[nH]4)c3c2)c1 [Compound 1409, 2-(Dimethylamino)-N-(5-(3-(7-(3-fluorophenyl)-3H-imidazo[4,5-b]pyridin-2-yl)-1H-pyrazolo[3,4-b]pyridin-5-yl)pyridin-3-yl)acetamide]
- pIC50 [1]: 5.40
- pEC50 [2]: ≥ 8.05

SMILES: O=C(Nc1cncc(-c2cnc3[nH]nc(-c4nc5c(-c6cccs6)ccnc5[nH]4)c3c2)c1)C1CC1 [Compound 303, N-(5-(3-(7-(Thiophen-2-yl)-3H-imidazo[4,5-b]pyridin-2-yl)-1H-pyrazolo[3,4-b]pyridin-5-yl)pyridin-3-yl)cyclopropanecarboxamide]
- pIC50 [1]: 8.11
- pEC50 [2]: ≤ 5.00

SMILES: Fc1ccc(-c2ccnc3[nH]c(-c4n[nH]c5ncc(-c6cncc(CN7CCCC7)c6)cc45)nc23)cc1 [Compound 33, 3-(7-(4-Fluorophenyl)-3H-imidazo[4,5-b]pyridin-2-yl)-5-(5-(pyrrolidin-1-ylmethyl)pyridin-3-yl)-1H-pyrazolo[3,4-b]pyridine]
- pIC50 [1]: 6.84
- pEC50 [2]: 5.11

SMILES: c1ccc(-c2ccnc3[nH]c(-c4n[nH]c5ncc(-c6cncc(CNCC7CCCC7)c6)cc45)nc23)nc1 [Compound 130, 1-Cyclopentyl-N-((5-(3-(7-(pyridin-2-yl)-3H-imidazo[4,5-b]pyridin-2-yl)-1H-pyrazolo[3,4-b]pyridin-5-yl)pyridin-3-yl)methyl)methanamine]
- pIC50 [1]: 6.20
- pEC50 [2]: ≥ 8.05

SMILES: O=C(Nc1cncc(-c2cnc3[nH]nc(-c4nc5c(-c6ccccc6F)ccnc5[nH]4)c3c2)c1)C1CCCC1 [Compound 61, N-(5-(3-(7-(2-Fluorophenyl)-3H-imidazo[4,5-b]pyridin-2-yl)-1H-pyrazolo[3,4-b]pyridin-5-yl)pyridin-3-yl)cyclopentanecarboxamide]
- pIC50 [1]: 7.38
- pEC50 [2]: 6.23

SMILES: Fc1cccc(-c2ccnc3[nH]c(-c4n[nH]c5ncc(C6CCNCC6)cc45)nc23)c1 [Compound 909, 3-(7-(3-Fluorophenyl)-3H-imidazo[4,5-b]pyridin-2-yl)-5-(piperidin-4-yl)-1H-pyrazolo[3,4-b]pyridine]
- pIC50 [1]: < 5.00
- pEC50 [2]: ≤ 5.00

SMILES: CC(=O)c1ccc(-c2ccnc3[nH]c(-c4n[nH]c5ncc(-c6cncc(NC(=O)C7CCCCC7)c6)cc45)nc23)s1 [Compound 384, N-(5-(3-(7-(5-Acetylthiophen-2-yl)-3H-imidazo[4,5-b]pyridin-2-yl)-1H-pyrazolo[3,4-b]pyridin-5-yl)pyridin-3-yl)cyclohexanecarboxamide]
- pIC50 [1]: < 5.00
- pEC50 [2]: ≤ 5.00

SMILES: Cc1cn(-c2ccnc3[nH]c(-c4n[nH]c5ncc(-c6cncc(NC(=O)C(C)(C)C)c6)cc45)nc23)cn1 [Compound 165, N-(5-(3-(7-(4-Methyl-1H-imidazol-1-yl)-3H-imidazo[4,5-b]pyridin-2-yl)-1H-pyrazolo[3,4-b]pyridin-5-yl)pyridin-3-yl)pivalamide]
- pIC50 [1]: < 5.00
- pEC50 [2]: ≤ 5.00

SMILES: Fc1cccc(-c2ccnc3[nH]c(-c4n[nH]c5ncc(-c6ccncc6)cc45)nc23)c1 [Compound 924, 3-(7-(3-Fluorophenyl)-3H-imidazo[4,5-b]pyridin-2-yl)-5-(pyridin-4-yl)-1H-pyrazolo[3,4-b]pyridine]
- pIC50 [1]: < 5.00
- pEC50 [2]: ≤ 5.00

SMILES: COc1cncc(-c2cnc3[nH]nc(-c4nc5c(-c6cccc(F)c6)ccnc5[nH]4)c3c2)c1 [Compound 920, 3-(7-(3-Fluorophenyl)-3H-imidazo[4,5-b]pyridin-2-yl)-5-(5-methoxypyridin-3-yl)-1H-pyrazolo[3,4-b]pyridine]
- pIC50 [1]: 5.98
- pEC50 [2]: ≥ 8.05

SMILES: CC(C)(C)C(=O)Nc1cncc(-c2cnc3[nH]nc(-c4nc5c(-c6ccc(F)cc6)ccnc5[nH]4)c3c2)c1 [Compound 28, N-(5-(3-(7-(4-Fluorophenyl)-3H-imidazo[4,5-b]pyridin-2-yl)-1H-pyrazolo[3,4-b]pyridin-5-yl)pyridin-3-yl)pivalamide]
- pIC50 [1]: 7.37
- pEC50 [2]: 7.59

SMILES: CN(C)Cc1cncc(-c2cnc3[nH]nc(-c4nc5c(-c6cccc(F)c6)ccnc5[nH]4)c3c2)c1 [Compound 10, 1-(5-(3-(7-(3-Fluorophenyl)-3H-imidazo[4,5-b]pyridin-2-yl)-1H-pyrazolo[3,4-b]pyridin-5-yl)pyridin-3-yl)-N,N-dimethylmethanamine]
- pIC50 [1]: < 5.00
- pEC50 [2]: 5.59

SMILES: CS(=O)(=O)NCc1cc(F)cc(-c2ccnc3[nH]c(-c4n[nH]c5ncc(-c6cncnc6)cc45)nc23)c1 [Compound 414, N-(3-Fluoro-5-(2-(5-(pyrimidin-5-yl)-1H-pyrazolo[3,4-b]pyridin-3-yl)-3H-imidazo[4,5-b]pyridin-7-yl)benzyl)methanesulfonamide]
- pIC50 [1]: < 5.00
- pEC50 [2]: ≤ 5.00

SMILES: CC(C)Nc1cncc(-c2cnc3[nH]nc(-c4nc5c(-c6ccoc6)ccnc5[nH]4)c3c2)c1 [Compound 270, 5-(3-(7-(Furan-3-yl)-3H-imidazo[4,5-b]pyridin-2-yl)-1H-pyrazolo[3,4-b]pyridin-5-yl)-N-isopropylpyridin-3-amine]
- pIC50 [1]: 7.35
- pEC50 [2]: 6.10

SMILES: CCCC(=O)Nc1cncc(-c2cnc3[nH]nc(-c4nc5c(-c6ccncc6)ccnc5[nH]4)c3c2)c1 [Compound 102, N-(5-(3-(7-(Pyridin-4-yl)-3H-imidazo[4,5-b]pyridin-2-yl)-1H-pyrazolo[3,4-b]pyridin-5-yl)pyridin-3-yl)butyramide]
- pIC50 [1]: 5.62
- pEC50 [2]: ≤ 5.00

SMILES: CN(C)c1cncc(-c2cnc3[nH]nc(-c4nc5c(N6CCCCC6)ccnc5[nH]4)c3c2)c1 [Compound 139, N,N-Dimethyl-5-(3-(7-(piperidin-1-yl)-3H-imidazo[4,5-b]pyridin-2-yl)-1H-pyrazolo[3,4-b]pyridin-5-yl)pyridin-3-amine]
- pIC50 [1]: 6.42
- pEC50 [2]: ≤ 5.00

SMILES: O=C(Cc1ccccc1)Nc1cncc(-c2cnc3[nH]nc(-c4nc5cccnc5[nH]4)c3c2)c1 [Compound 216, N-(5-(3-(3H-Imidazo[4,5-b]pyridin-2-yl)-1H-pyrazolo[3,4-b]pyridin-5-yl)pyridin-3-yl)-2-phenylacetamide]
- pIC50 [1]: 6.12
- pEC50 [2]: ≤ 5.00

SMILES: CC(C)Nc1cncc(-c2cnc3[nH]nc(-c4nc5c(-c6cc(F)cc(NCCN(C)C)c6)ccnc5[nH]4)c3c2)c1 [Compound 426, N^1-(3-Fluoro-5-(2-(5-(5-(isopropylamino)pyridin-3-yl)-1H-pyrazolo [3,4-b]pyridin-3-yl)-3H-imidazo[4,5-b]pyridin-7-yl)phenyl)-N^2,N^2-dimethylethane-1,2-diamine]
- pIC50 [1]: 6.89
- pEC50 [2]: 6.54
